Patent US8541476B2, “Compounds for treatment of malignant tumors” (The Trustees of the University of Pennsylvania, priority 2007, dated 2013)

Experiments:
[1] = test system: HT-29 colorectal cancer cells; assay: Clonogenic survival assay, HT-29 cells; type: cell-based, human
Procedure: U251, HT-29, or A549 cells were plated at different densities in triplicate, treated with NS-123 or DMSO (alone) and irradiated 4, 8, or 12 hours later with a range of doses using ^137Cs γ-rays at a dose rate of ˜4 Gy/minute (min). One hour after irradiation, the medium was replaced with fresh medium without NS-123 or DMSO. The cells were fixed 7-14 days after IR and stained with crystal violet.
Clonogenic survival assays were performed.
In both cases, cells were pretreated with the compounds or DMSO vehicle control for 4 hours prior to treatment with ionizing radiation at the indicated doses.

[2] = test system: U251 cells transplanted into ZF embryos; assay: U251 xenograft ZF model (U251-RFP fluorescence); type: in vivo, Danio rerio
Procedure: ZF were raised in accordance with previously established protocols (McAleer, et al., 2005, J. Radiat. Oncol. Biol. Phys. 61:10-3) at the University of Pennsylvania School of Medicine. Embryos were maintained at 30° C. after transplantation procedures. The age of embryos is indicated as the hours post-fertilization (hpf) and days post-fertilization (dpf) for all experimental data shown. Embryos were either irradiated with 10 Gy or sham-irradiation as previously described (McAleer, et al., 2005, J. Radiat. Oncol. Biol. Phys. 61:10-3) immediately after photography at 24 hpf. Selected embryos were incubated with NS-123 at a concentration of 30 μM for 14 hours before either irradiation or sham-irradiation.
U251 cells were stably transfected with a RFP construct (pDsRed2-C 1; Clontech, Palo Alto, Calif.). Using a Nanoject II microinjector (Drummond Scientific, Broomall, Pa.) 1-100 cells were transplanted into each ZF embryo still in the chorion, from the high stage of their development (approximately 3.5 hpf) to the oblong-sphere stage (approximately 4.5 hpf). The transplantation site was localized either to the blastodisc approximately halfway between the margin and the animal pole or the center of the embryonic yolk sac. Morphological analysis was performed as previously described (Geiger, et al., 2006, Cancer Res. 66:8172-81). Transplanted embryos were examined under a 100× PlanNeofluor objective mounted on a Nikon TE-200 epifluorescence microscope. Images of embryos bearing RFP-positive cells were captured with a Hammamatsu CCD camera controlled with IP LabSpectrum v2.0.1 software (Scanalytics, Inc., Rockville, Md.). Image analysis and pseudocoloring was performed with Kodak Molecular Imaging software v. 4.0.5 (Kodak, Rochester, N.Y.). […]
Human cancer cells can be transplanted into ZF embryos through microinjection (Lee et al., 2005, Dev. Dyn. […]:1560-1570; Haldi et al., 2006, Angiogenesis 9:139-151; Mizgireuv et al., 2006, Cancer Res. 66:3120-3125). […] The embryos were subsequently examined for fluorescence on sequential days following irradiation.

[3] = test system: dsDNA break repair in U251 cells; assay: DSB measurement by PFGE and number average length analysis; type: cell-based, human; settings: U251, 30 μM 4 hours, 4 Gy
Procedure: Cells were treated with 30 μM NS-123 or DMSO alone. Four hours later, the cells were either sham-irradiated, or irradiated with 4 Gy of ^137Cs γ-rays (Radiation Facility, Brody School of Medicine, ECU) at the dose rate of 0.57 Gy/min and placed immediately at 37° C. in fresh medium without NS-123 and harvested at different repair times up to 24 hours. No significant changes in the percentage of dead cells were detected by trypan blue exclusion as a result of irradiation. […] A DNA dispersion curve relating DNA length to electrophoretic mobility, based on all length standards was determined from an analytical mobility function as previously described using number average length analysis (NALA) (Seo, et al., 2005, Clin. Cancer Res. 11:7499-507).
As a first step in understanding the mechanism of the radiosensitizing activity of NS-123, the processing of DSBs in U251 cells treated with 30 μM NS-123 or DMSO (control) was measured using an adaptation of PFGE. […] Therefore, a 4 hour, 30 μM NS-123 treatment for experiments analyzing the effects of NS-123 on DSB repair and immunoblotting was used (see below) which require a significant quantity of cells. […]

SMILES: CCC(=O)c1ccc(Br)c([N+](=O)[O-])c1 [NS-123, 4′-bromo-3′-nitropropiophenone]
- DER at 0.5 survival ([1]; HT-29, 5 μM for 12 hours prior to IR): 3.0
- DER at 0.1 survival ([1]; HT-29, pretreatment with NS-123): 3.0
- surviving U251 cells, irradiated in the presence of drug ([2]; NS-123 + 10 Gy IR, 5 dpf): markedly fewer cells
- relative fluorescence versus irradiated-only control ([2]; NS-123 + IR, 10 embryos/condition/experiment): faster decrease in luminescence
- size of U251 xenografts, drug alone ([2]; NS-123 alone, 3 or 5 dpf): did not have any significant effect on the size
- initial number of dsDNA breaks [3]: 88.5±5.3 DSBs/Gbp
- residual DSB damage compared to initial levels ([3]; 24 hours repair): ~25%
